How the values were obtained:
[1] = target: T1, CCR3 (Homo sapiens, UniProt P51677); experiment: Compound affinity at human recombinant CCR3 receptors, radioligand competition on CHO-K1 cell membranes; assay type: binding; parameters: expressed in transfected cells; host or cells: CHO-K1; conditions: 2 nM [3H]-4-(2,4-dichloro-3-methylphenoxy)-1'-[4-(methylsulfonyl)benzoyl]-1,4'-bipiperidine, 2 h at 37° C., mean of minimum 2 experiments; for Ki: read-out: CCR3 pKi (converted)
T1 sequence (P51677 1-355): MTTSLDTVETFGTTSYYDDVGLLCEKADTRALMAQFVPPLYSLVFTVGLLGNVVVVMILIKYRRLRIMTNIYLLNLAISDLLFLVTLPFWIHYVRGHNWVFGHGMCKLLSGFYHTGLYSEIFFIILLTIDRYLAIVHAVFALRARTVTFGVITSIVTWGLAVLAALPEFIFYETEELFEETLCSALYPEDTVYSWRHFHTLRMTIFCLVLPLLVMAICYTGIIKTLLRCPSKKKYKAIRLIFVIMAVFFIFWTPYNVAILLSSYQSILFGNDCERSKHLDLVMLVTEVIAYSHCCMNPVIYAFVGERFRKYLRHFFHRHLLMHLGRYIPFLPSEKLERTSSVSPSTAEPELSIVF

[2] = target: T2, human H1 receptor (Homo sapiens, UniProt P35367); experiment: Histamine H1 receptor binding, competition displacement of [3H]-pyrilamine; conditions: 1 nM [3H]-pyrilamine, membranes from recombinant CHO-K1 cells, 1 hour at room temperature; read-out: H1 pKi (converted)
T2 construct: purchased Euroscreen SA, Brussels, Belgium ES-390-M; host or cells: CHO-K1
T2 sequence (P35367 whole entry): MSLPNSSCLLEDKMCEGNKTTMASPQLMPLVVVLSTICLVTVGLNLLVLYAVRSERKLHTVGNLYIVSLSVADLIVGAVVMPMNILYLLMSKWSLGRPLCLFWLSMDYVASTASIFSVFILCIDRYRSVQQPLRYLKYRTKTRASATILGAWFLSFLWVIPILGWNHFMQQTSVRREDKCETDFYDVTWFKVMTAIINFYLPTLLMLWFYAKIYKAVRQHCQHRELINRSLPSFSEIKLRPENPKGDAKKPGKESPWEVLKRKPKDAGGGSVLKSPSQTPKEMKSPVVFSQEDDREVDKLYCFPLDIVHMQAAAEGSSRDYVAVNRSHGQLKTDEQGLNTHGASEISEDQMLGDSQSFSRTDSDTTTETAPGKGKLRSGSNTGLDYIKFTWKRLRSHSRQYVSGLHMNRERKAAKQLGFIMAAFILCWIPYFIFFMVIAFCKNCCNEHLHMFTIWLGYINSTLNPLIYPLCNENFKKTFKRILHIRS

[3] = target: T1, CCR3; experiment: Eotaxin-2-induced shape change in eosinophils in human blood in vitro; assay type: cell-based; parameters: Human blood, collected by venous puncture into 9 mL lithium-heparin tubes; endogenous in cells; host or cells: eosinophils in human whole blood; conditions: eotaxin-2 E/[A] curve displacement, 4 min at 37° C., flow cytometry forward scatter, read-out: CCR3 pA2 (converted)

CCc1c(OC2CCN(CC3CCN([C@@H](Cc4ccccc4)C(=O)O)CC3)CC2)ccc(Cl)c1Cl [Example 13, (2S)-2-[4-[[4-(3,4-dichloro-2-ethyl-phenoxy)-1-piperidyl]methyl]-1-piperidyl]-3-phenylpropanoic acid]
Ki [1]: 1.26 nM
Ki [2]: 100 nM
Kb [3]: 200 nM

Cc1c(OC2CCN(CC3CCN([C@@H](Cc4ccccc4)C(=O)O)CC3)CC2)ccc(C#N)c1Cl [Example 15, (22S)-2-(4-{[4-(3-chloro-4-cyano-2-methylphenoxy)-piperidin-1-yl]methyl}piperidin-1-yl)-3-phenylpropanoic acid]
CCR3 pKi [1]: 8.2

COc1ccccc1C[C@@H](C(=O)O)N1CCC(CN2CCC(Oc3ccc(Cl)c(Cl)c3C)CC2)CC1 [Example 2, (2S)-2-[4-[[4-(3,4-dichloro-2-methyl-phenoxy)-1-piperidyl]methyl]-1-piperidyl]-3-(2-methoxyphenyl)-propanoic acid]
Ki [1]: 0.631 nM
Kb [3]: 20 nM

CCc1c(OC2CCN(CC3CCN([C@@H](Cc4ccc(F)cc4)C(=O)O)CC3)CC2)ccc(Cl)c1Cl [Example 14, (2S)-2-[4-[[4-(3,4-dichloro-2-ethyl-phenoxy)-1-piperidyl]methyl]-1-piperidyl]-3-(4-fluorophenyl)-propanoic acid]
Ki [1]: 0.501 nM
Kb [3]: 200 nM

Cc1c(OC2CCN(CC3CCN([C@@H](Cc4ccc(C#N)cc4)C(=O)O)CC3)CC2)ccc(Cl)c1Cl [Example 3, (2S)-3-(4-cyanophenyl)-2-[4-[[4-(3,4-dichloro-2-methyl-phenoxy)-1-piperidyl]methyl]-1-piperidyl]-propanoic acid]
Ki [1]: 0.501 nM
Ki [2]: 31.6 nM
Kb [3]: 20 nM

From patent publication US8314127B2, “Piperidine derivatives” (Astrazeneca AB, priority 2005, dated 2012)
